# Source: patent US8410109B2, “Pharmaceutical compositions for the prevention and treatment of complex diseases and their delivery by insertable medical devices” (Resverlogix Corp., priority 2005, dated 2013)
# Counter-ions that a name gives are not always drawn.
# Assays:
# [1] = system: VCAM-1; assay: VCAM-1 ELISA on lysates of TNF-α stimulated HUVECs; assay type: cell-based; conditions: Homo sapiens, HUVEC, approx. 16 hours
# Protocol: (§1) Compounds were dissolved in DMSO, aliquoted, and stored at −20° C. Cultured human vascular endothelial cells (HUVECs) were seeded in 96-well plates in complete EGM-2 media (˜100 μL/well); cells were plated at ˜2-3×10^5/mL, and were from passage 8 to 12. Cells were incubated overnight. On the following day cells are stimulated with TNF-α (˜1 ng/mL) in the presence or absence of compounds dissolved in DMSO. Triplicate wells were used for each test. To establish a dose curve and an IC50, multiple concentrations in 2- to 5-fold increments were used. Cells were exposed to TNF-α and compounds for approximately 16 hours. The next day, cells were visually examined via light microscopy to score for visual signs of toxicity. Cell culture media was analyzed using an MCP-1 ELISA. Cells were refed (−100 μL/well) with 20% CellTiter 96. Aqueous One Cell Proliferation Solution (Promega), 80% EGM-2 medium. Media optical density (at 490 nm) was determined after 1 hour. Plates were aspirated and cell lysates were prepared and these lysates were tested using a VCAM-1 ELISA.
# (§2) In Table 2, a positive result (+) was defined as at least 50% inhibition of the protein levels MCP-1 or VCAM-1, as determined by the ELISA.
# [2] = system: MCP-1; assay: MCP-1 ELISA on culture media of TNF-α stimulated HUVECs; assay type: cell-based; conditions: Homo sapiens, HUVEC, approx. 16 hours
# Protocol: as §1, §2
# [3] = system: Human coronary artery smooth muscle cells (CASMCs); assay: Smooth muscle cell proliferation protocol; assay type: cell-based; conditions: 72 hours, read-out: % Inhibition of SMC Proliferation
# Protocol: Compounds were dissolved in DMSO, aliquoted, and stored at −20° C. Human coronary artery smooth muscle cells (CASMCs) were plated in 96-well plates and were grown in SmBM-2 media. After 1-2 hours, media was aspirated and replaced with serum-free ME/F12 media, except the controls. Cells were incubated for a further 48 hours. Compounds were diluted in DME/F12 containing 10% FBS. Media was aspirated from the plates and compounds in DME/F12 containing 10% FBS. Six wells were used per condition and duplicate plates were used. Cells were incubated for a further 72 hours. Media was aspirated from one set of plates; those cells were refed (˜100 μL/well) with 20% CellTiter 96 Aqueous One Cell Proliferation Solution (Promega), 80% EGM-2 medium. Media optical density (at 490 nm) was determined after 3-4 hours. In the second set of plates, serum-free DME/F12 media (20 μL) was added to each well. Part of the supernatant (50 μL) was removed and placed in an ELISA plate and was stored temporarily at 4° C. The remaining media and cells in the second set of plates were freeze-thawed for four cycles. The lysates and supernatants were mixed and centrifuged. Part of the supernatant (50 μL) was removed and placed in an ELISA plate. The Promega Cytotox assay was performed on the ELISA plates. The ratio of supernatant OD to supernatant+cell lysate OD was determined.
# In Table 2, a positive result (+) was defined as at least 40% inhibition of the proliferation of SMC, as determined by the assay.
SMILES,inhibition at 50 µM [1],inhibition at 50 µM [2],inhibition at 50 µM [3],other results
"CN(C)Cc1ccc2c(=O)cc(-c3ccc(O)cc3)oc2n1 (as salt: hydrochloride) [EXAMPLE 26, 7-((dimethylamino)methyl-2-(4-hydroxyphenyl)-4H-pyrano[2,3-b]pyridin-4-one dihydrochloride]",–,–,–,melting point: 205 °C
"CC(C)(Sc1cc(C(C)(C)C)c(O)c(C(C)(C)C)c1)Sc1cc(C(C)(C)C)c(OC(=O)CCC(=O)O)c(C(C)(C)C)c1 [AGI1067, reference compound]",–,–,–,inhibition at 5 µM ([1]; 5 uM): 68%; inhibition at 5 µM ([2]; 5 uM): 60%
"O=c1cc(-c2ccc(O)cc2)oc2ncccc12 [EXAMPLE 1, 2-(4-Hydroxy-phenyl)-pyrano[2,3-b]pyridin-4-one]",≥ 50%,< 50%,< 40%,–
"O=c1cc(-c2ccc(O)cc2)oc2cccnc12 [EXAMPLE 2, 2-(4-Hydroxy-phenyl)-pyrano[3,2-b]pyridin-4-one]",< 50%,< 50%,≥ 40%,–
"O=c1cc(-c2ccc(O)cn2)oc2ccccc12 [EXAMPLE 11, 2-(5-Hydroxy-pyridin-2-yl)chromen-4-one]",< 50%,< 50%,< 40%,–
"O=c1cc(-c2ccncc2)oc2ccccc12 [EXAMPLE 12, 2-Pyridin-4-yl-chromen-4-one]",≥ 50%,≥ 50%,≥ 40%,–
"O=c1cc(-c2ccc(O)cc2)[nH]c2ccccc12 [EXAMPLE 14, 2-(4-Hydroxy-phenyl)-1H-quinolin-4-one]",≥ 50%,≥ 50%,< 40%,–
"O=C1C=C(c2ccc(O)cc2)C(=O)c2ccccc21 [EXAMPLE 20, 2-(4-Hydroxy-phenyl)-[1,4]naphthoquinone]",–,–,–,inhibition at 10 µM [1]: ≥ 50%; inhibition at 10 µM [2]: < 50%; inhibition at 10 µM [3]: < 40%
"CN(C)Cc1ccc2c(=O)cc(-c3ccc(O)cc3)oc2n1 [EXAMPLE 26, 7-((dimethylamino)methyl-2-(4-hydroxyphenyl)-4H-pyrano[2,3-b]pyridin-4-one dihydrochloride]",< 50%,< 50%,≥ 40%,–
"CN(C)CCOc1ccc(-c2cc(=O)c3cccnc3o2)cc1 [EXAMPLE 27, 2-(4-(2-(dimethylamino)ethoxy)phenyl)-4H-pyrano[2,3-b]pyridin-4-one dihydrochloride]",< 50%,< 50%,≥ 40%,–
"O=c1cc(-c2ccncc2)oc2ncccc12 [EXAMPLE 30, 2-(pyridin-4-yl)-4H-pyrano[2,3-b]pyridin-4-one hydrochloride]",< 50%,< 50%,≥ 40%,–
"Cc1cc(-c2cc(=O)c3cccnc3o2)cc(C)c1OCCN1CCOCC1 [EXAMPLE 31, 2-(3,5-dimethyl-4-(2-morpholinoethoxy)phenyl)-4H-pyrano[2,3-b]pyridin-4-one hydrochloride]",≥ 50%,< 50%,≥ 40%,–
"Cc1cc(-c2cc(=O)c3cc(CN4CCCC4)cnc3o2)cc(C)c1O [EXAMPLE 33, 2-(4-hydroxy-3,5-dimethylphenyl)-6-(pyrrolidin-1-ylmethyl)-4H-pyrano[2,3-b]pyridin-4-one dihydrochloride]",< 50%,≥ 50%,≥ 40%,–
"COc1cc(OC)c2c(=O)cc(-c3ccncc3)oc2c1 [EXAMPLE 34, 5,7-dimethoxy-2-(pyridin-4-yl)-4H-chromen-4-one hydrochloride]",< 50%,< 50%,≥ 40%,–
"O=c1cc(-c2ccccc2)oc2ncc(CN3CCCC3)cc12 [EXAMPLE 35, 2-phenyl-6-(pyrrolidin-1-ylmethyl)-4H-pyrano[2,3-b]pyridin-4-one hydrochloride]",< 50%,< 50%,≥ 40%,–
"O=c1cc(-c2ccc(F)cc2)oc2ncc(CN3CCCC3)cc12 [EXAMPLE 37, 2-(4-fluorophenyl)-6-(pyrrolidin-1-ylmethyl)-4H-pyrano[2,3-b]pyridin-4-one hydrochloride]",≥ 50%,< 50%,≥ 40%,–
"Nc1ccc(-c2cc(=O)c3cccnc3o2)cc1 [EXAMPLE 38, 2-(4-aminophenyl)-4H-pyrano[2,3-b]pyridin-4-one hydrochloride]",< 50%,< 50%,≥ 40%,–
"CC(C)Oc1ccc(-c2cc(=O)c3cc(CN4CCCC4)cnc3o2)cc1 [EXAMPLE 39, 2-(4-isopropoxyphenyl)-6-(pyrrolidin-1-ylmethyl)-4H-pyrano[2,3-b]pyridinone hydrochloride]",≥ 50%,≥ 50%,≥ 40%,–
"Cc1cc(-c2cc3ncccc3c(=O)[nH]2)cc(C)c1O [EXAMPLE 40, 7-(4-hydroxy-3,5-dimethylphenyl)-1,6-naphthyridin-5(6H)-one hydrochloride]",< 50%,< 50%,≥ 40%,–
"COc1cc(O)nc2cc(-c3cc(C)c(O)c(C)c3)[nH]c(=O)c12 [EXAMPLE 41, 2-hydroxy-7-(4-hydroxy-3,5-dimethylphenyl)-4-methoxy-1,6-naphthyridin-5(6H)-one dihydrochloride]",≥ 50%,≥ 50%,≥ 40%,–
"CNc1nc(-c2cc(C)c(O)c(C)c2)cc2ccc(CN3CCN(C)CC3)cc12 [EXAMPLE 43, 2,6-dimethyl-4-(1-(methylamino)-7-((4-methylpiperazin-1-yl)methyl)isoquinolin-3-yl)phenol trihydrochloride]",≥ 50%,≥ 50%,≥ 40%,–
"COc1cc(OC)c2c(=O)[nH]c(-c3cc(C)c(OCCN4CCOCC4)c(C)c3)cc2c1 [EXAMPLE 48, 3-(3,5-dimethyl-4-(2-morpholinoethoxy)phenyl)-6,8-dimethoxyisoquinolin-1(2H)-one]",≥ 50%,< 50%,≥ 40%,–
"Cc1cccc2oc(-c3ccncc3)cc(=O)c12 [EXAMPLE 49, 5-methyl-2-(pyridin-yl)-4H-chromen-4-one]",–,–,–,inhibition at 10 µM [1]: < 50%; inhibition at 10 µM [2]: < 50%; inhibition at 10 µM [3]: < 40%
"CN(C)Cc1ccc2oc(-c3ccncc3)cc(=O)c2c1 [EXAMPLE 50, 6-((dimethylamino)methyl)-2-(pyridinyl)-4H-chromen-4-one]",< 50%,< 50%,≥ 40%,–
"O=c1cc(-c2ccncc2)oc2cccc(CO)c12 [EXAMPLE 51, 5-(hydroxymethyl)-2-(pyridin-4-yl)-4H-chromen-4-one]",< 50%,< 50%,< 40%,–
"CC(C)(Sc1cc(C(C)(C)C)c(O)c(C(C)(C)C)c1)Sc1cc(C(C)(C)C)c(O)c(C(C)(C)C)c1 [Probucol, probucol, reference compound]",–,–,–,inhibition at 10 µM [1]: 19%; inhibition at 10 µM [2]: 15%
"CO[C@H]1C[C@@H]2CC[C@@H](C)[C@@](O)(O2)C(=O)C(=O)N2CCCC[C@H]2C(=O)O[C@H]([C@H](C)C[C@@H]2CC[C@@H](O)[C@H](OC)C2)CC(=O)[C@H](C)/C=C(\C)[C@@H](O)[C@@H](OC)C(=O)[C@H](C)C[C@H](C)/C=C/C=C/C=C/1C [Rapamycin, rapamycin, reference compound]",–,–,43%,–
"Oc1ccc(C=Cc2cc(O)cc(O)c2)cc1 [Resveratrol, resveratrol, reference compound]",54%,47%,–,–
"CC(=O)O[C@H]1C(=O)[C@@]2(C)[C@H]([C@H](OC(=O)c3ccccc3)[C@]3(O)C[C@H](OC(=O)[C@H](O)[C@@H](NC(=O)c4ccccc4)c4ccccc4)C(C)=C1C3(C)C)[C@]1(OC(C)=O)CO[C@@H]1C[C@@H]2O [Taxol, taxol, reference compound]",–,–,–,inhibition at 0.1 µM ([3]; 100 nM): 19%
